This note sets out measurements from ChEMBL document CHEMBL1201862, “PubChem BioAssay data set” (2004).

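These data come from cells grown in 96-well plates and exposed to compound for 48 hours at five concentrations. The concentration for 50% growth inhibition is given as GI50.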 Calls of active or inactive are those of the source. No stated cut-off is given here; in the data, active = GI50 up to about 1.1 µM and inactive = higher. Where only a bound is given, the exact number is not on record here.

Some test systems named below: COLO 205; SK-MEL-5; RPMI-8226; K562; A549; HCT-116; HT-29; HOP-92; SF-268; UO-31; KM12; HCC 2998; HCT-15; OVCAR-5; NCI-H226; OVCAR-8; U-251; UACC-62; Malme-3M; OVCAR-3.
Common to all, as to experiment: growth of human tumour cells (NCI), 48 h

With `COc1cc2c(oc(=O)c3cc(C)cc(OC)c32)c2c(C3OC(C)C(O)C(C)(O)C3O)ccc(O)c12` (stereo not given), the GI50 with COLO 205 is 0.551 µM (active); with SK-MEL-5, 0.581 µM (active); in the assay on RPMI-8226, 0.454 µM (active); in the assay with K562 it was 0.277 µM (active); in the assay on A549, 0.439 µM (active); in the assay on HCT-116, 0.216 µM (active). In addition, the GI50 in the assay with HT-29 is 0.463 µM (active); with HOP-92, 0.745 µM (active); in the assay with SF-268, 0.349 µM (active); in the assay on UO-31 it was 1.04 µM (active); in the assay on KM12, 0.771 µM (active); with HCC 2998 it was 0.665 µM (active). Also, the GI50 is 0.662 µM with HCT-15; 0.681 µM (active) in the assay with OVCAR-5; 0.376 µM (active) with NCI-H226; 0.256 µM (active) with OVCAR-8; 0.335 µM (active) in the assay with U-251; 0.414 µM (active) with UACC-62. Also, the GI50 in the assay with Malme-3M is 0.673 µM (active); in the assay with OVCAR-3, 0.785 µM (active).
Regarding `COC1C(O)C(n2ncc3c(SC)nc(SC)nc32)OC1C(O)CO` (stereo not given), the GI50 in the assay on COLO 205, in the assay on SK-MEL-5, in the assay with RPMI-8226, in the assay on K562, in the assay on A549 and in the assay with HCT-116 was > 100 µM (inactive) each time. Besides, the GI50 with HT-29, with HOP-92, in the assay on SF-268, in the assay with UO-31, in the assay on KM12 and with HCC 2998 was > 100 µM (inactive) throughout. For the same compound, the GI50 was greater than 100 µM with HCT-15; > 100 µM (inactive) with OVCAR-5; > 100 µM (inactive) with NCI-H226; > 100 µM (inactive) in the assay on OVCAR-8; > 100 µM (inactive) with U-251; > 100 µM (inactive) with UACC-62. Also, the GI50 with Malme-3M and in the assay with OVCAR-3 was > 100 µM (inactive) in each case.
Consider `N#CC1=C(O)NC(O)=C(C#N)C1c1c(Cl)cccc1Cl`, for which the GI50 is 37.1 µM (inactive) with COLO 205; 27.3 µM (inactive) in the assay with SK-MEL-5; > 100 µM (inactive) with RPMI-8226; > 100 µM (inactive) in the assay on K562; 27.3 µM (inactive) in the assay with A549; 29 µM (inactive) with HCT-116. The GI50 in the assay on HT-29 is 39.4 µM (inactive); in the assay with HOP-92, 15.8 µM (inactive); in the assay with SF-268 it was 30.9 µM (inactive); in the assay on UO-31, 37.9 µM (inactive); in the assay on KM12, 22.1 µM (inactive); in the assay on HCC 2998, 7.93 µM (inactive). For the same compound, the GI50 with HCT-15 is 20.4 µM; with OVCAR-5 it was 33.5 µM (inactive); with NCI-H226, 17.9 µM (inactive); with OVCAR-8, 20.2 µM (inactive); with U-251 it was 32.7 µM (inactive); in the assay on UACC-62, 23.5 µM (inactive). The values for the GI50 in the assay with Malme-3M and with OVCAR-3 were 23.1 µM (inactive) and 32.9 µM (inactive), respectively.
As to `COc1ccc2[nH]c3c(C)c4ccncc4c(C)c3c2c1`, the GI50 was 0.19 µM (active) in the assay on COLO 205; 1.26 µM (inactive) with SK-MEL-5; 0.289 µM (active) with RPMI-8226; 0.196 µM (active) with K562; 0.264 µM (active) with A549; 0.0425 µM (active) with HCT-116. Moreover, the GI50 was 0.212 µM (active) in the assay on HT-29; 0.23 µM (active) with HOP-92; 0.429 µM (active) in the assay with SF-268; 1.42 µM (inactive) in the assay on UO-31; 0.152 µM (active) in the assay on KM12; 1.92 µM (inactive) in the assay on HCC 2998. Besides, the GI50 was 0.22 µM in the assay with HCT-15; 1.42 µM (inactive) in the assay with OVCAR-5; 1.13 µM (inactive) in the assay with NCI-H226; 0.111 µM (active) with OVCAR-8; 0.513 µM (active) in the assay with U-251; 0.731 µM (active) with UACC-62. The results for the GI50 with Malme-3M and in the assay with OVCAR-3 were 1.44 µM (inactive) and 0.402 µM (active), respectively.
In the case of `Cc1ccc(C#CS(=O)(=O)C(F)(F)F)cc1`, the GI50 in the assay on COLO 205, in the assay with SK-MEL-5, in the assay with RPMI-8226, with K562, in the assay on A549 and in the assay on HCT-116 was > 100 µM (inactive) throughout. The GI50 with HT-29, in the assay on HOP-92, in the assay on SF-268, in the assay with UO-31, with KM12 and with HCC 2998 was > 100 µM (inactive) each time. In addition, the GI50 in the assay with HCT-15 is greater than 100 µM; in the assay with OVCAR-5, > 100 µM (inactive); with NCI-H226, > 89.7 µM (inactive); in the assay on OVCAR-8 it was > 100 µM (inactive); in the assay with U-251 it was > 100 µM (inactive); in the assay on UACC-62 it was > 100 µM (inactive). The GI50 with Malme-3M and in the assay with OVCAR-3 was > 100 µM (inactive) throughout.
`Nc1ccccc1Sc1ccc(Cl)cc1`: the GI50 in the assay with COLO 205 was 21.1 µM (inactive); with SK-MEL-5, 17.8 µM (inactive); in the assay with RPMI-8226, 24.4 µM (inactive); in the assay with K562, 27.8 µM (inactive); in the assay on A549, 37.2 µM (inactive); with HCT-116 it was 34.3 µM (inactive). Further, the GI50 is 19.1 µM (inactive) in the assay on HT-29; 20 µM (inactive) in the assay with HOP-92; 39.6 µM (inactive) in the assay on SF-268; 17.9 µM (inactive) in the assay on UO-31; 33.4 µM (inactive) in the assay with KM12; 28.1 µM (inactive) in the assay with HCC 2998. The GI50 in the assay on HCT-15 is 28.1 µM; in the assay with OVCAR-5, 29.9 µM (inactive); in the assay on NCI-H226 it was 4.86 µM (inactive); with OVCAR-8, 37.5 µM (inactive); in the assay on U-251, 16.2 µM (inactive); with UACC-62, 30.3 µM (inactive). Besides, the GI50 is 26.1 µM (inactive) with Malme-3M and 25.6 µM (inactive) with OVCAR-3.
